{
  "source": "paper PMC8047011",
  "about": "“Enantiomers of 2-methylglutamate and 2-methylglutamine selectively impact mouse brain metabolism and behavior” (Scientific Reports, 2021)",
  "key": {"GABAA α4β2γ2": {"molecular_target": "T1, GABAA α4β2γ2 (Homo sapiens, UniProt P47870+P48169)", "T1 construct": "host or cells: HEK 293", "T1 sequence (P48169 36-554)": "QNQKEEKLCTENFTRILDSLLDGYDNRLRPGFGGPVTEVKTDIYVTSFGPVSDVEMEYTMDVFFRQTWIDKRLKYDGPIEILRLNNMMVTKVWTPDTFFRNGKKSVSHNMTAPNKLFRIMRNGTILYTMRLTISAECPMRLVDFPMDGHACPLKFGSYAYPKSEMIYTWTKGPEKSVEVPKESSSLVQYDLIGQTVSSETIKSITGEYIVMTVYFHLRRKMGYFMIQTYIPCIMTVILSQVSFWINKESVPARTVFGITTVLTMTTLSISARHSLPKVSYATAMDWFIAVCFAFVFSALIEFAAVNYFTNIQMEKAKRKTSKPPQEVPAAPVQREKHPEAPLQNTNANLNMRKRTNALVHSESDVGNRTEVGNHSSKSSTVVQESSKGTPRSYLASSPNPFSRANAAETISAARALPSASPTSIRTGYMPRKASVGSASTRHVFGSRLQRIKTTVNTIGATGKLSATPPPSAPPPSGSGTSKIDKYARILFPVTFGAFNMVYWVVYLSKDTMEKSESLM", "T1 sequence (P47870 25-512 limits assumed)": "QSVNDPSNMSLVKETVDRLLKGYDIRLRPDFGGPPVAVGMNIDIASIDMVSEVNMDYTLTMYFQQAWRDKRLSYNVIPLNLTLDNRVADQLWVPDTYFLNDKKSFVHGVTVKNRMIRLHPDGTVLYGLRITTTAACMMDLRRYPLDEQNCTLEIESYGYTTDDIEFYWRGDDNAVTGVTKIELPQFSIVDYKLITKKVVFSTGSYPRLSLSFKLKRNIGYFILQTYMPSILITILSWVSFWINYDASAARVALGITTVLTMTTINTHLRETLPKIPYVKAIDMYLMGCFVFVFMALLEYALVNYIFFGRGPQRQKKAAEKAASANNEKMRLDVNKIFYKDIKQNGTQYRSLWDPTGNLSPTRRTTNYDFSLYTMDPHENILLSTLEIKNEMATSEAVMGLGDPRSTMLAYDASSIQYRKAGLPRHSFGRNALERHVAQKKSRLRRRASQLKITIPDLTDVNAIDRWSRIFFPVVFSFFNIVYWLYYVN", "T1 sequence (P18507 40-475 partner)": "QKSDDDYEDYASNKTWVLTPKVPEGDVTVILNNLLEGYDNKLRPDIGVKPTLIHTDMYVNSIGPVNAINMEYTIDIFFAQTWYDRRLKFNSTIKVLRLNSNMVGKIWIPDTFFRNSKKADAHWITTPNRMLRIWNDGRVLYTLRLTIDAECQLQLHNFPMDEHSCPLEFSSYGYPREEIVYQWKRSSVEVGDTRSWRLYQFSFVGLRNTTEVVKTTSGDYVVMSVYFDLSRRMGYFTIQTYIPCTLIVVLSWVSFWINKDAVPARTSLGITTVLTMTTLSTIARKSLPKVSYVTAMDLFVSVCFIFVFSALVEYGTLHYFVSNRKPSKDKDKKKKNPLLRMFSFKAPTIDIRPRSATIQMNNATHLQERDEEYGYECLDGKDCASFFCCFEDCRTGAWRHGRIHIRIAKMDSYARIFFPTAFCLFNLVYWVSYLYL", "experiment": "FLIPR functional receptor assay, GABAA α4β2γ2", "type": "cell-based", "conditions": "agonist mode; top test concentration 1 mM", "procedure": "(§1) intensity and lower number of tone and shock (2x) pairings to create a greater opportunity to observe pharmacologic activity.\n(§2) Receptor functional & binding assays\n(§3) Functional assays of all GABAA, NMDA (GluN2A–GluN2D) and AMPA (GluA2) receptor subunits were performed by SB Drug Discovery as a part of their CNS discovery panel using FLIPR technology. Briefly, receptor-expressing HEK 293 cell lines were incubated in a red membrane potential dye in HEPES:HBSS pH 7.4 buffer and the fluorescence (λex: 488, λex: 510–570) was monitored over time as the test compounds and/or reference compounds were added to the solution. In agonist assay, only test compounds were added. In positive allosteric modulator assay, cells were preincubated with test compounds and then low concentration (approximately EC20) of an appropriate agonist was added. In antagonist assay, cells were preincubated with test compounds and then high concentration (approximately EC80) of an appropriate agonist was added. For GABAA assays, GABA was used as the agonist, picrotoxin was used as the reference antagonist and allopregnanolone was used as the reference positive allosteric modulator (PAM). […] All compounds were tested at 7 concentration points in triplicate and EC50/IC50 was determined where applicable. […]"}, "NMDA nonspecific": {"system": "NMDA nonspecific", "experiment": "Nonspecific NMDA binding assay", "conditions": "100 μM, triplicate; rat", "procedure": "Nonspecific AMPA, kainate and NMDA binding assays were performed by Eurofins Discovery\n(Cerep) using rat cerebral cortex membranes and radiolabeled [3H]AMPA, [3H]kainic acid and\n[3H]CGP 39653, respectively. […]"}, "GABAB (B1a/B2)": {"molecular_target": "T2, GABAB (B1a/B2) (Homo sapiens, UniProt Q9UBS5)", "T2 construct": "purchased SB Drug Discovery (CNS discovery panel, FLIPR); Eurofins Discovery (Cerep)", "T2 sequence (Q9UBS5 15-961 limits assumed)": "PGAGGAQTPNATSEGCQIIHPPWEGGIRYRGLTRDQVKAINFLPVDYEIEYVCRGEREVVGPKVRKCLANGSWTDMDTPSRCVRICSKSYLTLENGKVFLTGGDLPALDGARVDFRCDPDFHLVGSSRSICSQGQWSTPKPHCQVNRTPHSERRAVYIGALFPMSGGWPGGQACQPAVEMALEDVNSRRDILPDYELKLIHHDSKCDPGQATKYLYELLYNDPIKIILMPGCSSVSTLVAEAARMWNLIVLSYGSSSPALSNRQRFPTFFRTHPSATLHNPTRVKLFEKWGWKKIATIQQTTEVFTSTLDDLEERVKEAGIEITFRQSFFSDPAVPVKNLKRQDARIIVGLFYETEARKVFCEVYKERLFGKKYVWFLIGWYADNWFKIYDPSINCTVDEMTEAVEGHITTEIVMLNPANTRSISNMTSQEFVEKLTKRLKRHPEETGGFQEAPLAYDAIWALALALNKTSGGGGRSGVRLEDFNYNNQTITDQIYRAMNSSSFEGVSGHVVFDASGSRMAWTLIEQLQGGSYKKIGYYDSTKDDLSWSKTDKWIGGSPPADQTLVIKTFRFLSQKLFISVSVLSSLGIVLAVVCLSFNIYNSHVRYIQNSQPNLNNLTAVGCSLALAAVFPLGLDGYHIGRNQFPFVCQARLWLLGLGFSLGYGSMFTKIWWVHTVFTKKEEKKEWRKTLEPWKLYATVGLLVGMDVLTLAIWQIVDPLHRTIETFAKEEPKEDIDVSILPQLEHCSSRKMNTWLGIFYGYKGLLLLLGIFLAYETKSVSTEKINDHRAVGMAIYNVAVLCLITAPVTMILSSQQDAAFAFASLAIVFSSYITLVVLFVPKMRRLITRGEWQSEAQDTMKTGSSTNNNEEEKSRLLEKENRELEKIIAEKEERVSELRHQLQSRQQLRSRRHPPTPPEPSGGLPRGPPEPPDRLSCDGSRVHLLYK", "T2 sequence (O75899 42-941 partner)": "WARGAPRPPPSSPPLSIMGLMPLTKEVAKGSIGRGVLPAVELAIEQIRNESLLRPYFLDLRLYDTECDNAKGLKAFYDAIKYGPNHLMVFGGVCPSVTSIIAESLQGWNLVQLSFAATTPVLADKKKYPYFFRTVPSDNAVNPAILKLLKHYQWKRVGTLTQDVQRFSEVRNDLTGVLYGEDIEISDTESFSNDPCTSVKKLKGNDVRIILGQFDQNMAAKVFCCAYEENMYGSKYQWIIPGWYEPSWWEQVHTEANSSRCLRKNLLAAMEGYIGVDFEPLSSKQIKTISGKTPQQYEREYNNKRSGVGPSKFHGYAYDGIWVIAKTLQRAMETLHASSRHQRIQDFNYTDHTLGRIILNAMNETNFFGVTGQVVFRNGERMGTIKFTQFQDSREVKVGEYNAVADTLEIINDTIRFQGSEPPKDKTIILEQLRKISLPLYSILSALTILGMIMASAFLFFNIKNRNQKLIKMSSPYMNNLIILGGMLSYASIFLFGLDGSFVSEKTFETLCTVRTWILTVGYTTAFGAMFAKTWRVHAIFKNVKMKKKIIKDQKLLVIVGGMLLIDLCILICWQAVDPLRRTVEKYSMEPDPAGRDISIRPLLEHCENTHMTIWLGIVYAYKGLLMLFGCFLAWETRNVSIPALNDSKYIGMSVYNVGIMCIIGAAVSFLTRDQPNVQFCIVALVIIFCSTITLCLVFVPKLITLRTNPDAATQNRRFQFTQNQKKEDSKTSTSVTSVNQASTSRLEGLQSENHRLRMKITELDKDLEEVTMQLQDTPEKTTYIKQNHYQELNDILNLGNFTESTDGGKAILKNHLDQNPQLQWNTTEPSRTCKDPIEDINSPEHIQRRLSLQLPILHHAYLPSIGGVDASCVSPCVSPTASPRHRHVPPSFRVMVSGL", "experiment": "GABAB (B1a/B2) binding assay", "conditions": "triplicate, read-out: % of radioligand binding inhibition, GABAB (B1a/B2)", "procedure": "mGluR1, mGluR2, mGluR5 and GABAB binding assays were performed by Eurofins Discovery. […]\nmGluR5 and GABAB binding assays were performed using recombinant CHO-K1 cells and\n[3H]CGP-54626 and [3H]quisqalic acid, respectively. All compounds were tested at a single\nconcentration of 100 uM in triplicate. […]"}, "GABAA α4β3γ2": {"molecular_target": "T3, GABAA α4β3γ2 (Homo sapiens, UniProt P28472+P48169)", "T3 construct": "host or cells: HEK 293", "T3 sequence (P48169 36-554)": "as the sequence (P48169 36-554) above", "T3 sequence (P28472 26-473)": "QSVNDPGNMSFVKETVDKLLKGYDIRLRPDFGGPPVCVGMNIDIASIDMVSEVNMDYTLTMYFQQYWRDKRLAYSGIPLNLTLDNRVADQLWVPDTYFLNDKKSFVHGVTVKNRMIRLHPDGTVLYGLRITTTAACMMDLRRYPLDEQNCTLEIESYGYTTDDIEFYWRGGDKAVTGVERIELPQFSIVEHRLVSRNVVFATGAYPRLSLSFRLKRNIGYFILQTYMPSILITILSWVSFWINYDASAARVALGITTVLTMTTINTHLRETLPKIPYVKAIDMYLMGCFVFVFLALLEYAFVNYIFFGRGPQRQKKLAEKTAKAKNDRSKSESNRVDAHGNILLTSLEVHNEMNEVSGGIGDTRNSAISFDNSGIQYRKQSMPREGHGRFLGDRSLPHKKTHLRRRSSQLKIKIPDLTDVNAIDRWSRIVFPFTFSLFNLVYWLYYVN", "T3 sequence (P18507 40-475 partner)": "as the sequence (P18507 40-475 partner) above", "experiment": "FLIPR functional receptor assay, GABAA α4β3γ2", "type": "cell-based", "conditions": "agonist mode; top test concentration 1 mM", "procedure": "as §1, §2, §3"}, "C57Bl/6 mice": {"system": "C57Bl/6 mice", "type": "in vivo", "conditions": "for Distance moved in the novel cage: single dose 100, 300, or 900 mg/kg IP, dose- and time-dependent, P < 0.001", "procedure": "See Supplementary Methods for details.\nThe lysate was centrifuged (2,500g for 15 min at 4 °C) and the supernatant was assayed using Pierce BCA Protein Assay Kit (23225) using BioTek Epoch plate spectrophotometer by recording absorbance at 562 nm.\nTwo or three 10 μL aliquots of the homogenate were transferred to a 96 well plate and extracted with 190 μL of 60% acetonitrile in water containing 10 μM GABA-d6 or 10 μM Glu-d5 and Gln-d5 as internal standards. 40 μL aliquots of the extracts were then diluted with 120 μL of acetonitrile and prepared for LC-MS/MS analysis. Brain and serum half-lives were calculated using the ‘PKNCA’ package for R. Endogenous levels of Glu, Gln and GABA were determined in the brains of mice used in the pharmacokinetics experiment. MRM transitions specific for Glu, Gln and GABA were monitored simultaneously.\nIn vivo animal studies; Maximum Tolerated Dose (MTD) and behavioral studies […]\n000664) were group-housed in a Stanford University animal facility with 12:12 hour light/dark cycle ([…]) and had free access to water and food. All behavioral tests were conducted during the animal dark-cycle. […]\nNovel Cage Observation: The mouse was dosed and immediately placed in the center of a clean, Innovive disposable rat cage with bedding (dimensions: 17\"L x 13.4\"W x 7.8\"H) and allowed to move freely while being tracked automatically. Mice were monitored with Ethovision XT tracking software for the distance moved and average velocity during the 60-minute trial. […]\nHot plate test: Hot Plate apparatus (IITC Inc. Model 39) was set to 55°C± 0.2. […] Latency time was recorded when hind paw licking or jumping off first occurred.\nSHIRPA: The SHIRPA preliminary screen designed by Rogers et al. (1997) was modified and used to assess the general health and behavioral traits of the mice for the initial five minutes after drug administration. […] The test began by placing the mouse in the clear plastic viewing jar for 60 seconds, and the behavioral parameters were monitored and recorded. […]\nBehavioral parameters monitored were according to Portmann et al. (2014). […]"}},
  "note": "pEC50: −log10 of the molar value.",
  "data": [
    {"smiles": "C[C@@](N)(CCC(=O)O)C(=O)O", "note": "[(R)-2MeGlu, (R)-2-methylglutamic acid]", "values": [
      {"measurement": "pEC50", "setting": "GABAA α4β2γ2", "result": "< 3.00"},
      {"measurement": "% of radioligand binding inhibition, NMDA nonspec", "setting": "NMDA nonspecific", "result": 8, "unit": "%"},
      {"measurement": "inhibition at 100 µM", "setting": "GABAB (B1a/B2)", "result": 18, "unit": "%"},
      {"measurement": "pEC50", "setting": "GABAA α4β3γ2", "result": "< 3.00"},
      {"measurement": "Survival after single dose", "setting": "C57Bl/6 mice; male, C57Bl/6, mouse, in vivo", "result": "Only one mouse died 10 days after 900 mg/kg"},
      {"measurement": "Distance moved in the novel cage", "setting": "C57Bl/6 mice", "result": "significantly decreased"}
    ]},
    {"smiles": "C[C@](N)(CCC(=O)O)C(=O)O", "note": "[(S)-2MeGlu, (S)-2-methylglutamic acid]", "values": [
      {"measurement": "pEC50", "setting": "GABAA α4β2γ2", "result": "< 3.00"},
      {"measurement": "% of radioligand binding inhibition, NMDA nonspec", "setting": "NMDA nonspecific", "result": 3, "unit": "%"},
      {"measurement": "inhibition at 100 µM", "setting": "GABAB (B1a/B2)", "result": 6, "unit": "%"},
      {"measurement": "pEC50", "setting": "GABAA α4β3γ2", "result": "< 3.00"},
      {"measurement": "Distance moved in the novel cage", "setting": "C57Bl/6 mice", "result": "significantly decreased"}
    ]}
  ]
}
